Columns and labels:
[1] = system: bovine serum albumin (BSA)-AGEs formation; assay: Glucose and methylglyoxal induced BSA-AGEs formation in vitro (fluorescence); assay type: biochemical; details: BSA + 2 mM methylglyoxal + 200 mM glucose, 37° C., 7 days
Experimental: Glucose and Methylglyoxal induced bovine serum albumin (BSA)-AGEs formation is used to test the inhibitory effects of the inventive single herbal extract and mixed herbal extracts on the formation of AGEs in vitro.
Methods: As a protein source, BSA (Sigma-Aldrich, St. Louis, Mo., USA) was dissolved in 50 mM phosphate buffer (pH 7.4) to a concentration of 10 mg/ml. As a sugar source, a mixture of 2 mM methylglyoxal and 200 mM glucose (sigma-Aldrich, St. Louis, Mo., USA) was used. This sugar mixture was added to the prepared BSA solution for use in tests. […] Aminoguanidine (AG), a positive control drug, was tested in the same manner except that AG was dissolved in distilled water. As a negative control group, a culture consisting of BSA, the sugar mixture and 10% Tween80 was cultured. As blanks to the control and test groups, the materials for the test group and the materials for the control group were used after preparation without incubation. Five samples for each group were used to reduce errors to the lowest possible extent. After 7 days incubation, the amounts of AGEs in test samples were determined by measuring the fluorescence at an emission wavelength of 440 nm and an excitation wavelength at 370 nm using a fluorescence Spectrophotometer. The inhibition (%) of the formation of AGEs was calculated according to the following equation:
Inhibition (%) of production=100−[(fluorescent intensity of test group−fluorescent intensity of blank to test group)/(fluorescent intensity of control group−fluorescent intensity of blank to control group)]×100.

[2] = system: STZ-diabetic rats; assay: Body weight gain and general well-being in STZ-diabetic rats, 12 weeks treatment; assay type: in vivo, rat
Experimental: (§1) Male Sprague-Dawley male rats, weighing 200-250 g, aged 8-10 weeks, were used. Diabetes was induced by administration of streptozotocin (STZ, Sigma-Aldrich, USA) in 0.1 mol/L sodium citrate (pH 4.5) at a dose of 55 mg/kg intraperitoneally. After 48 hours injection, blood glucose levels of the animals were examined using glucose meter. The induction of diabetes was confirmed when the blood glucose level was greater than 300 mg/dl. Animals were maintained in diabetic conditions for 2 weeks without any treatment and blood glucose was determined every week to ensure the subsistence of diabetes. Animals with uncertain blood glucose levels or blood glucose exceeding 600 mg/dl were excluded from the study.
HEM was suspended in 1% carboxymethylcellulose (CMC) before use. Aminogunidine was dissolved in water first and then added into 1% CMC before use. […] The diabetes-induced and the normal control groups consisted of 8 animals of each. The initial body weights and blood glucose levels of the diabetic animals were similar among the three groups. […] The normal control group and the diabetic control group were administered with equivalent volume of CMC daily for 12 weeks. […]
The general behavioral status of the animals (i.e. locomotor activity, alertness to environmental changes) was observed every day, and the body weight and food intake were measured weekly.

[3] = system: STZ-induced diabetic rats; assay: Immunohistochemical staining for insulin in pancreatic islets of STZ-diabetic rats; assay type: in vivo, rat; details: 12 weeks treatment, FIG. 2
Experimental: as §1
(§2) HEM was suspended in 1% carboxymethylcellulose (CMC) before use. Aminogunidine was dissolved in water first and then added into 1% CMC before use. […] The diabetes-induced and the normal control groups consisted of 8 animals of each. The initial body weights and blood glucose levels of the diabetic animals were similar among the three groups. […] The normal control group and the diabetic control group were administered with equivalent volume of CMC daily for 12 weeks. The standard rat diet and water were available ad libitum throughout the entire treatment period. […]

[4] = system: STZ-induced diabetic rats; assay: AGE-fluorescence in the pancreas of STZ-diabetic rats; assay type: in vivo, rat; details: 12 weeks treatment, FIG. 3
Experimental: as §1, with “Animals with uncertain blood glucose levels or blood glucose exceeding 600 mg/dl were excluded from the study.” left out
Minced pancreatic tissue was delipidated with chloroform and methanol (2:1,v/v) overnight. […] The amounts of AGEs in these alkali-soluble samples were determined by measuring the fluorescence at an emission wavelength of 440 nm and an excitation wavelength at 370 nm using a fluorescence Spectrophotometer. A native bovine serum albumin (BSA) preparation (1 mg/ml of 0.1 N NaOH) was used as a standard, and its fluorescence intensity was defined as one arbitrary unit (AU). The fluorescence values of samples were measured at a protein concentration of 1 mg/ml and expressed in arbitrary unit (AU) compared with a native BSA preparation. Sample protein concentrations were determined using Bradford method.

[5] = system: STZ-diabetic rats; assay: Fluorescent AGEs and CML-AGE in the descending aorta of STZ-diabetic rats; assay type: in vivo, rat; details: 12 weeks, FIG. 6 and FIG. 7
Experimental: as §1, §2

[6] = system: STZ-diabetic rats; assay: 24-hr urinary albumin excretion in STZ-diabetic rats; assay type: in vivo, rat; details: 12 weeks, P<0.01, FIG. 8
Experimental: as §1
HEM was suspended in 1% carboxymethylcellulose (CMC) before use. Aminogunidine was dissolved in water first and then added into 1% CMC before use. […] The diabetes-induced and the normal control groups consisted of 8 animals of each. The initial body weights and blood glucose levels of the diabetic animals were similar among the three groups. […]
Development of albuminuria is a cardinal manifestation of glomerular injury and a pathological factor in the progression of renal dysfunction. […] The levels of urinary albumin were quantified using a commercial assay kit (Guangzhou WhiJa Technology, Inc. Guangzhou, China), according to the manufacturer's instructions.

[7] = system: STZ-diabetic rats; assay: AGE levels in the kidney cortex of STZ-diabetic rats; assay type: in vivo, rat; details: 12 weeks, mean ± SD, n=8
Experimental: as §1, §2

[8] = system: STZ-diabetic rats; assay: Renal oxidative stress (SOD activity, MDA) in STZ-diabetic rats; assay type: in vivo, rat; details: renal cortical tissue, 12 weeks, mean ± SD, n=8
Experimental: as §1
HEM was suspended in 1% carboxymethylcellulose (CMC) before use. Aminogunidine was dissolved in water first and then added into 1% CMC before use. […] The diabetes-induced and the normal control groups consisted of 8 animals of each. […]
For measurements of SOD activity and MDA contents, the renal cortical tissues were homogenized in a buffer solution (0.25 M sucrose, 0.5 mM EDTA, 50 mM HEPES, protease inhibitors) on ice and centrifuged at 4° C. at 12,000 rpm for 20 min. The supernatants were collected and analyzed with corresponding assay kits (Nanjing Jiancheng Shengwu Yanjiu Suo, Nanjing, China) according to the manufacturer's instructions, […]

With `N=C(N)NN` [Aminoguanidine, aminoguanidine] the “Inhibition (%) of the formation of AGEs” value ([1]; 12.5 mcg/ml) was 19.6 ± 3.6%, the “Inhibition (%) of the formation of AGEs” value ([1]; 25 mcg/ml) was 31.7 ± 3.5% and the “Inhibition (%) of the formation of AGEs” value ([1]; 50 mcg/ml) was 44.8 ± 2.9%. The “Inhibition (%) of the formation of AGEs” value ([1]; 100 mcg/ml) was 69.9 ± 3.5%, the “body weight increase by the end of the experiment” value ([2]; 12 weeks oral treatment) was 44.0 g and the “Body weight (g) (after treatment)” value ([2]; oral gavage daily 12 weeks, HEM 500 mg/kg, AG 50 mg/kg, mean ± SD, n=8) was 258.6 ± 8.1 g. For the same compound, the “insulin immunostaining in the pancreatic islets” value [3] was “no evident effect”, the “pancreatic level of AGEs (fluorescence)” value [4] was “effectively lowered” and the “accumulation of AGEs (fluorescent AGEs and CML-AGE) in the descending aorta” value [5] was “effectively reduced”. For the same compound, the “reduction of 24-hr urinary albumin excretion compared with STZ-diabetic control group” value [6] was 37.3%, the “AGE-fluorescence in the kidney cortex” value [7] was 3.4 ± 0.5 AU/mg protein and the “CML-AGE in the kidney cortex” value [7] was 262.8 ± 55.4 ng/mg protein. The “Renal MDA” value [8] was 8.82 ± 1.92 μM/mg protein and the “Renal SOD activity” value [8] was 1.78 ± 0.42 Unit/mg protein.
